Assay results as given in patent US12606528B2, “Methods and materials for inhibiting NF-kB activity” (University of Pittsburgh - Of the Commonwealth System of …, priority 2019, dated 2026).
Where two headings read alike, the source gives them in different places.

Key:
NF-κB = NF-κB assay: THP1-NF-κB-LUC cells, LPS-stimulated secreted luciferase; assay type: cell-based; conditions: THP1-NF-κB-LUC cells, read-out: IC50 (NF-κB assay)
Procedure, shortened: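 THP1-NF-κB-LUC cells (25k/well) were pretreated with compounds for 2 h, then stimulated with LPS (10 ng/mL) for 18 h. Secreted luciferase was measured and normalized to vehicle, and IC50 was fitted from the concentration series.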

TNF release = experiment: TNF assay: TNF release from LPS-stimulated human PBMCs (TNF ELISA); assay type: cell-based; conditions: PBMC, read-out: IC50 (TNF assay)
Procedure, shortened: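 TNF ELISA on supernatants read-out; cells were 10k human PBMCs/well given LPS at 10 ng/mL for 18 h after a 2 h compound pre-incubation across a concentration series, with IC50 derived for suppression of TNF secretion.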

[1] = compounds 2 hours before LPS (10 ng/mL) for 18 hours, secreted luciferase
[2] = human PBMCs, compounds 2 hours before LPS (10 ng/ml) for 18 hours, supernatant TNF ELISA
[3] = LPS-stimulated human PBMCs, TNF ELISA

| Compound | IC50 (NF-κB; [1]) | IC50 (TNF release; [2]) | IC50 (NF-κB; LPS-stimulated) | IC50 (TNF release; [3]) |
| --- | --- | --- | --- | --- |
| COc1cccc(-c2nc(S(=O)(=O)c3ccc(Cl)cc3)c([S+]([O-])CC3CC3)[nH]2)c1 (stereo not drawn) [BC19462] |  |  | 1 to 10 µM | > 10 µM |
| O=S(=O)(c1ccc(Cl)cc1)c1nc(-c2ccc(Cl)cc2)oc1[S+]([O-])CC1CC1 (stereo not drawn) [BC19464] |  |  | 0.1 to 1 µM | < 0.1 µM |
| O=S(=O)(c1ccc(Cl)cc1)c1nc(-c2ccccc2)[nH]c1[S+]([O-])CC1CC1 (stereo not drawn) [BC19466] |  |  | 1 to 10 µM | > 10 µM |
| COCCS(=O)(=O)c1[nH]c(-c2ccccc2)nc1S(=O)(=O)c1ccc(Cl)cc1 [BC19468] |  |  | 1 to 10 µM | > 10 µM |
| O=S(=O)(CC1CC1)c1[nH]c(-c2ccccc2)nc1S(=O)(=O)c1ccc(F)cc1 [BC19470] |  |  | > 10 µM | > 10 µM |
| CS(=O)(=O)c1sc(-c2ccccc2)nc1S(=O)(=O)c1ccc(Cl)cc1 [BC19471] |  |  | 1 to 10 µM | 1 to 10 µM |
| CCC[S+]([O-])c1sc(-c2ccccc2)nc1S(=O)(=O)c1ccc(Cl)cc1 (stereo not drawn) [BC19472] |  |  | > 10 µM | > 10 µM |
| CC(C)CS(=O)(=O)c1sc(-c2ccccc2)nc1S(=O)(=O)c1ccc(Cl)cc1 [BC19473] |  |  | > 10 µM | > 10 µM |
| CCCS(=O)(=O)c1sc(-c2cccc(F)c2)nc1S(=O)(=O)c1ccc(Cl)cc1 [BC19475] |  |  | 1 to 10 µM | 1 to 10 µM |
| CC(C)S(=O)(=O)c1sc(-c2cccc(F)c2)nc1S(=O)(=O)c1ccc(Cl)cc1 [BC19476] |  |  | > 10 µM | > 10 µM |
| COCC[S+]([O-])c1sc(-c2ccc(Cl)cc2)nc1S(=O)(=O)c1ccc(Cl)cc1 (stereo not drawn) [BC19479] |  |  | > 10 µM | > 10 µM |
| CC(C)[S+]([O-])c1sc(-c2ccc(Cl)cc2)nc1S(=O)(=O)c1ccc(Cl)cc1 (stereo not drawn) [BC19480] |  |  | > 10 µM | > 10 µM |
| CS(=O)(=O)c1cc2c(c(S(=O)(=O)Nc3ccc(F)c(F)c3)c1)OCC(=O)N2 [BC19481] | < 0.1 µM | > 10 µM |  |  |
| COc1ccc(NS(=O)(=O)c2cc(S(C)(=O)=O)cc3c2OCC(=O)N3)cc1 [BC19485] | < 0.1 µM | > 10 µM |  |  |
| Cc1ccc(NS(=O)(=O)c2cc(S(C)(=O)=O)cc3c2OCC(=O)N3)cc1 [BC19488] | < 0.1 µM | > 10 µM |  |  |
| CCS(=O)(=O)c1cc2c(c(S(=O)(=O)Nc3ccc(Cl)cc3)c1)OCC(=O)N2 [BC19491] | < 0.1 µM | > 10 µM |  |  |
| CCS(=O)(=O)c1cc2c(c(S(=O)(=O)Nc3ccc(C(C)C)cc3)c1)OCC(=O)N2 [BC19493] | < 0.1 µM | > 10 µM |  |  |

| Compound | IC50 (NF-κB; [1]) | IC50 (TNF release; [2]) | IC50 (NF-κB; LPS-stimulated) | IC50 (TNF release; [3]) |
| --- | --- | --- | --- | --- |
| COCC(=O)N1CCC(C(=O)Cc2ccc3nc(-c4ccc(F)cc4)c(-c4ccc(F)cc4)nc3n2)CC1 [BC19494] |  |  | 0.1 to 1 µM | > 10 µM |
| Cn1cnnc1-c1cnc2nc(-c3ccc(F)cc3)c(-c3ccc(F)cc3)nc2c1 [BC19496] |  |  | < 0.1 µM | > 10 µM |
| O=C(NCCN1CCOCC1)c1ccc2nc(-c3ccc(Cl)cc3)c(-c3ccc(Cl)cc3)nc2c1 [BC19497] |  |  | < 0.1 µM | > 10 µM |
| CN1CCN(C(=O)c2ccc3nc(-c4cccc(N(C)C)c4)c(-c4cccc(N(C)C)c4)nc3c2)CC1 [BC19498] |  |  | > 10 µM | > 10 µM |
| CN(C)c1cccc(-c2nc3ccc(C(=O)NCCO)cc3nc2-c2cccc(N(C)C)c2)c1 [BC19502] |  |  | > 10 µM | > 10 µM |
| O=S(=O)(NCC1CC1)c1ccc2nc(-c3ccc(F)cc3)c(-c3ccc(F)cc3)nc2c1 [BC19506] |  |  | 0.1 to 1 µM | > 10 µM |
| COCCNS(=O)(=O)c1ccc2nc(-c3ccc(F)cc3)c(-c3ccc(F)cc3)nc2c1 [BC19507] |  |  | < 0.1 µM | > 10 µM |
| O=S(=O)(NCCCO)c1ccc2nc(-c3ccc(F)cc3)c(-c3ccc(F)cc3)nc2c1 [BC19509] |  |  | < 0.1 µM | > 10 µM |
| CN1CCN(c2ccc3nc(-c4ccc(F)cc4)c(-c4ccc(F)cc4)nc3c2)CC1 [BC19510] |  |  | 0.1 to 1 µM | > 10 µM |
| CC(=O)N1CCN(c2ccc3nc(-c4ccc(F)cc4)c(-c4ccc(F)cc4)nc3c2)CC1 [BC19511] |  |  | < 0.1 µM | > 10 µM |
| O=C(c1ccc2nc(-c3ccc(F)cc3)c(-c3ccc(F)cc3)nc2c1)N1CCN(CCO)CC1 [BC19513] |  |  | < 0.1 µM | > 10 µM |
| O=C(c1ccc2nc(-c3ccc(F)cc3)c(-c3ccc(F)cc3)nc2c1)N1CCN(CCOCCO)CC1 [BC19514] |  |  | 0.1 to 1 µM | 1 to 10 µM |
| O=c1[nH]ccc2cc(S(=O)(=O)c3ccc(Cl)cc3)ccc12 [BC19516] | > 10 µM | > 10 µM |  |  |
| Cc1ccc([S+]([O-])c2ccc3c(=O)[nH]ccc3c2)cc1 (stereo not drawn) [BC19517] | > 10 µM | > 10 µM |  |  |
| CS(=O)(=O)c1[nH]c(-c2ccccc2)nc1S(=O)(=O)c1ccc(F)cc1 [BC19522] |  |  | 1 to 10 µM | > 10 µM |
| CC(C)[S+]([O-])c1[nH]c(-c2ccccc2)nc1S(=O)(=O)c1ccc(F)cc1 (stereo not drawn) [BC19523] |  |  | 1 to 10 µM | > 10 µM |
| COCC[S+]([O-])c1[nH]c(-c2ccccc2)nc1S(=O)(=O)c1ccc(F)cc1 (stereo not drawn) [BC19524] |  |  | > 10 µM | > 10 µM |

Other lines, results leading:

| IC50 (NF-κB; [1]) | IC50 (TNF release; [2]) | IC50 (NF-κB; LPS-stimulated) | IC50 (TNF release; [3]) | Compound |
| --- | --- | --- | --- | --- |
| > 10 µM | > 10 µM |  |  | O=S(=O)(c1ccc(F)cc1)c1cnccc1O [BC19459] |
| > 10 µM | > 10 µM |  |  | O=S(=O)(c1ccccc1)c1cnccc1O [BC19461] |
|  |  | < 0.1 µM | 0.1 to 1 µM | CC(C)C[S+]([O-])c1oc(-c2ccc(Cl)cc2)nc1S(=O)(=O)c1ccc(Cl)cc1 (stereo not drawn) [BC19463] |
|  |  | 1 to 10 µM | > 10 µM | CCC[S+]([O-])c1[nH]c(-c2ccccc2)nc1S(=O)(=O)c1ccc(Cl)cc1 (stereo not drawn) [BC19465] |
|  |  | 1 to 10 µM | 1 to 10 µM | O=S(=O)(CC1CC1)c1[nH]c(-c2ccccc2)nc1S(=O)(=O)c1ccc(Cl)cc1 [BC19467] |
|  |  | 1 to 10 µM | > 10 µM | O=S(=O)(c1ccc(F)cc1)c1nc(-c2ccccc2)[nH]c1[S+]([O-])CC1CC1 (stereo not drawn) [BC19469] |
|  |  | 1 to 10 µM | > 10 µM | CN(C)CC[S+]([O-])c1sc(-c2ccccc2)nc1S(=O)(=O)c1ccc(Cl)cc1 (stereo not drawn) [BC19474] |
|  |  | > 10 µM | > 10 µM | CC(C)CS(=O)(=O)c1sc(-c2cccc(F)c2)nc1S(=O)(=O)c1ccc(Cl)cc1 [BC19477] |
|  |  | > 10 µM | 1 to 10 µM | O=S(=O)(c1ccc(Cl)cc1)c1nc(-c2cccc(F)c2)sc1[S+]([O-])CC1CC1 (stereo not drawn) [BC19478] |
| 0.1 to 1 µM | > 10 µM |  |  | CS(=O)(=O)c1cc2c(c(S(=O)(=O)Nc3ccccc3)c1)OCC(=O)N2 [BC19482] |
| < 0.1 µM | > 10 µM |  |  | CS(=O)(=O)c1cc2c(c(S(=O)(=O)Nc3ccc(Cl)cc3)c1)OCC(=O)N2 [BC19483] |
| < 0.1 µM | > 10 µM |  |  | CCc1ccc(NS(=O)(=O)c2cc(S(C)(=O)=O)cc3c2OCC(=O)N3)cc1 [BC19484] |
| < 0.1 µM | > 10 µM |  |  | Cc1ccc(NS(=O)(=O)c2cc(S(C)(=O)=O)cc3c2OCC(=O)N3)cc1Cl [BC19486] |
| 0.1 to 1 µM | > 10 µM |  |  | CCc1cccc(NS(=O)(=O)c2cc(S(C)(=O)=O)cc3c2OCC(=O)N3)c1 [BC19487] |
| < 0.1 µM | > 10 µM |  |  | Cc1c(Cl)cc2c(c1S(=O)(=O)Nc1ccc(F)c(F)c1)OCC(=O)N2 [BC19489] |
| < 0.1 µM | > 10 µM |  |  | Cc1c(Cl)cc2c(c1S(=O)(=O)Nc1ccc(OC(F)(F)F)cc1)OCC(=O)N2 [BC19490] |

| IC50 (NF-κB; [1]) | IC50 (TNF release; [2]) | IC50 (NF-κB; LPS-stimulated) | IC50 (TNF release; [3]) | Compound |
| --- | --- | --- | --- | --- |
| < 0.1 µM | > 10 µM |  |  | CCc1ccc(NS(=O)(=O)c2cc(S(=O)(=O)CC)cc3c2OCC(=O)N3)cc1 [BC19492] |
|  |  | 0.1 to 1 µM | > 10 µM | N#Cc1cnc2nc(-c3ccc(F)cc3)c(-c3ccc(F)cc3)nc2c1 [BC19495] |
|  |  | 1 to 10 µM | > 10 µM | C#CCNC(=O)c1ccc2nc(-c3cccc(N(C)C)c3)c(-c3cccc(N(C)C)c3)nc2c1 [BC19499] |
|  |  | > 10 µM | > 10 µM | CN(C)c1cccc(-c2nc3ccc(C(=O)O)cc3nc2-c2cccc(N(C)C)c2)c1 [BC19500] |
|  |  | > 10 µM | > 10 µM | CN(C)c1cccc(-c2nc3ccc(C(=O)NCCN4CCOCC4)cc3nc2-c2cccc(N(C)C)c2)c1 [BC19501] |
|  |  | 1 to 10 µM | 1 to 10 µM | O=C(NCCN1CCOCC1)c1ccc2nc(-c3ccc(OC(F)(F)F)cc3)c(-c3ccc(OC(F)(F)F)cc3)nc2c1 [BC19503] |
|  |  | 0.1 to 1 µM | > 10 µM | O=S(=O)(NCCN1CCOCC1)c1ccc2nc(-c3ccc(F)cc3)c(-c3ccc(F)cc3)nc2c1 [BC19504] |
|  |  | 0.1 to 1 µM | > 10 µM | O=S(=O)(NC1CC1)c1ccc2nc(-c3ccc(F)cc3)c(-c3ccc(F)cc3)nc2c1 [BC19505] |
|  |  | 0.1 to 1 µM | 1 to 10 µM | O=S(=O)(CCCCN1CCOCC1)c1ccc2nc(-c3ccc(F)cc3)c(-c3ccc(F)cc3)nc2c1 [BC19508] |
|  |  | 0.1 to 1 µM | > 10 µM | N#Cc1ccc2nc(-c3ccc(F)cc3)c(-c3ccc(F)cc3)nc2n1 [BC19512] |
| > 10 µM | > 10 µM |  |  | O=c1[nH]ccc2cc([S+]([O-])c3ccc(Cl)cc3)ccc12 (stereo not drawn) [BC19515] |
| > 10 µM | > 10 µM |  |  | Cc1ccc(S(=O)(=O)c2ccc3c(=O)[nH]ccc3c2)cc1 [BC19518] |
| > 10 µM | > 10 µM |  |  | O=c1[nH]ccc2cc([S+]([O-])c3cccc(F)c3)ccc12 (stereo not drawn) [BC19519] |
| > 10 µM | > 10 µM |  |  | O=c1[nH]ccc2cc(S(=O)(=O)c3cccc(F)c3)ccc12 [BC19520] |
|  |  | < 0.1 µM | 0.1 to 1 µM | CCCS(=O)(=O)c1oc(-c2ccccc2)nc1S(=O)(=O)c1ccc(Cl)cc1 [BC19521] |
|  |  | 1 to 10 µM | 1 to 10 µM | O=S(=O)(CC1CC1)c1sc(-c2ccccc2)nc1S(=O)(=O)c1ccc(Cl)cc1 [BC19525] |
